Earlier results as cited in US20050244461A1, “Controlled release drug delivery systems and methods for treatment of an eye” (Allergan, Inc., priority 2004, published 2005).

Settings: in vivo efficacy; 25 mg hydrocortisone equivalent to 1 mg dexamethasone; Goodman and Gilman

C[C@]12CCC(=O)C=C1CC[C@@H]1[C@@H]2[C@@H](O)C[C@@]2(C)[C@H]1CC[C@]2(O)C(=O)CO [hydrocortisone]
Potency relative to dexamethasone: approximately twentyfivefold less potent than dexamethasone
